Results from article PMC4004761 (Journal of medicinal chemistry, 2013).
Like-named read-outs stand apart in the source and are kept apart here. Marks after values point to notes of the source that are not given here.

Key:
[1] = test system: maximal electroshock seizure (hind-limb tonic extension); details: mouse
rat Nav1.2 = rat Nav1.2 (Rattus norvegicus, UniProt P04775); assay: Voltage-gated Na+ channel whole-cell patch-clamp in CHL1610 cells; assay type: cell-based
rat KCNQ2 = rat KCNQ2 (Rattus norvegicus, UniProt O88943); assay: KCNQ2 whole-cell patch-clamp, M-current protocol; assay type: cell-based
kappa-opioid receptor = kappa-opioid receptor (Homo sapiens, UniProt P41145); assay: Cerep receptor-binding panel: kappa opioid; details: read-out: Inhibition, kappa-opioid receptor
[2] = test system: kindled seizures (seizure score, after-discharge duration); details: for Effect in rat kindling model: Figure 1
[3] = test system: maximal electroshock seizure (hind-limb tonic extension); details: in vivo, cited from earlier work
[4] = test system: maximal electroshock seizure (hind-limb tonic extension); details: at 2 h (time of peak effect); cited from earlier work
[5] = test system: chemically-induced forelimb clonic seizures; details: mouse, cited from earlier work
[6] = test system: kindled seizures (seizure score, after-discharge duration); details: cited from earlier work
sound-induced seizures = assay: animal or person; details: Mus musculus, ip, read-out: Audiogenic seizure ED50

rat KCNQ2, sequence (O88943 whole entry): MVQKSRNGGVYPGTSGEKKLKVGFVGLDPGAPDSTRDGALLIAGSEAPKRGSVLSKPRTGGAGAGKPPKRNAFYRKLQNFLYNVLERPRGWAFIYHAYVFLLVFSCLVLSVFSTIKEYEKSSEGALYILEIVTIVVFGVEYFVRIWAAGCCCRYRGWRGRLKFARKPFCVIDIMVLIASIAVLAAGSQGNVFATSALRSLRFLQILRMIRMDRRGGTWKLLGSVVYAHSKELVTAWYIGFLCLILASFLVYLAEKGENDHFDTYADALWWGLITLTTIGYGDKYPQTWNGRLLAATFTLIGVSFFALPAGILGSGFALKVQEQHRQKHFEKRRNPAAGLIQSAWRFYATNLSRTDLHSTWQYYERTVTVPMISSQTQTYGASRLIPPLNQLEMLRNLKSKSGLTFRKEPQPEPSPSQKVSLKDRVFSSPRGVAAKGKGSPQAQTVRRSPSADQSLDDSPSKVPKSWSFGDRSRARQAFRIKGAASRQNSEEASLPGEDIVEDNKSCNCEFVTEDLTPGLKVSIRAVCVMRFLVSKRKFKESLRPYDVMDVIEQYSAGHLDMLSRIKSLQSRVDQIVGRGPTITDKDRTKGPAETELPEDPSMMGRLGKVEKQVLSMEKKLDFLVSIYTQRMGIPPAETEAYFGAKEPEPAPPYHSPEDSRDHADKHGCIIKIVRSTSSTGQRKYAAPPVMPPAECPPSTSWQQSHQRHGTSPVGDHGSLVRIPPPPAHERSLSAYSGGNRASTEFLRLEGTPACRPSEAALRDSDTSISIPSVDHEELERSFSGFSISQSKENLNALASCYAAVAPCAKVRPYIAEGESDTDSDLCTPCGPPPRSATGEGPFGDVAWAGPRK
rat Nav1.2, sequence (P04775 whole entry): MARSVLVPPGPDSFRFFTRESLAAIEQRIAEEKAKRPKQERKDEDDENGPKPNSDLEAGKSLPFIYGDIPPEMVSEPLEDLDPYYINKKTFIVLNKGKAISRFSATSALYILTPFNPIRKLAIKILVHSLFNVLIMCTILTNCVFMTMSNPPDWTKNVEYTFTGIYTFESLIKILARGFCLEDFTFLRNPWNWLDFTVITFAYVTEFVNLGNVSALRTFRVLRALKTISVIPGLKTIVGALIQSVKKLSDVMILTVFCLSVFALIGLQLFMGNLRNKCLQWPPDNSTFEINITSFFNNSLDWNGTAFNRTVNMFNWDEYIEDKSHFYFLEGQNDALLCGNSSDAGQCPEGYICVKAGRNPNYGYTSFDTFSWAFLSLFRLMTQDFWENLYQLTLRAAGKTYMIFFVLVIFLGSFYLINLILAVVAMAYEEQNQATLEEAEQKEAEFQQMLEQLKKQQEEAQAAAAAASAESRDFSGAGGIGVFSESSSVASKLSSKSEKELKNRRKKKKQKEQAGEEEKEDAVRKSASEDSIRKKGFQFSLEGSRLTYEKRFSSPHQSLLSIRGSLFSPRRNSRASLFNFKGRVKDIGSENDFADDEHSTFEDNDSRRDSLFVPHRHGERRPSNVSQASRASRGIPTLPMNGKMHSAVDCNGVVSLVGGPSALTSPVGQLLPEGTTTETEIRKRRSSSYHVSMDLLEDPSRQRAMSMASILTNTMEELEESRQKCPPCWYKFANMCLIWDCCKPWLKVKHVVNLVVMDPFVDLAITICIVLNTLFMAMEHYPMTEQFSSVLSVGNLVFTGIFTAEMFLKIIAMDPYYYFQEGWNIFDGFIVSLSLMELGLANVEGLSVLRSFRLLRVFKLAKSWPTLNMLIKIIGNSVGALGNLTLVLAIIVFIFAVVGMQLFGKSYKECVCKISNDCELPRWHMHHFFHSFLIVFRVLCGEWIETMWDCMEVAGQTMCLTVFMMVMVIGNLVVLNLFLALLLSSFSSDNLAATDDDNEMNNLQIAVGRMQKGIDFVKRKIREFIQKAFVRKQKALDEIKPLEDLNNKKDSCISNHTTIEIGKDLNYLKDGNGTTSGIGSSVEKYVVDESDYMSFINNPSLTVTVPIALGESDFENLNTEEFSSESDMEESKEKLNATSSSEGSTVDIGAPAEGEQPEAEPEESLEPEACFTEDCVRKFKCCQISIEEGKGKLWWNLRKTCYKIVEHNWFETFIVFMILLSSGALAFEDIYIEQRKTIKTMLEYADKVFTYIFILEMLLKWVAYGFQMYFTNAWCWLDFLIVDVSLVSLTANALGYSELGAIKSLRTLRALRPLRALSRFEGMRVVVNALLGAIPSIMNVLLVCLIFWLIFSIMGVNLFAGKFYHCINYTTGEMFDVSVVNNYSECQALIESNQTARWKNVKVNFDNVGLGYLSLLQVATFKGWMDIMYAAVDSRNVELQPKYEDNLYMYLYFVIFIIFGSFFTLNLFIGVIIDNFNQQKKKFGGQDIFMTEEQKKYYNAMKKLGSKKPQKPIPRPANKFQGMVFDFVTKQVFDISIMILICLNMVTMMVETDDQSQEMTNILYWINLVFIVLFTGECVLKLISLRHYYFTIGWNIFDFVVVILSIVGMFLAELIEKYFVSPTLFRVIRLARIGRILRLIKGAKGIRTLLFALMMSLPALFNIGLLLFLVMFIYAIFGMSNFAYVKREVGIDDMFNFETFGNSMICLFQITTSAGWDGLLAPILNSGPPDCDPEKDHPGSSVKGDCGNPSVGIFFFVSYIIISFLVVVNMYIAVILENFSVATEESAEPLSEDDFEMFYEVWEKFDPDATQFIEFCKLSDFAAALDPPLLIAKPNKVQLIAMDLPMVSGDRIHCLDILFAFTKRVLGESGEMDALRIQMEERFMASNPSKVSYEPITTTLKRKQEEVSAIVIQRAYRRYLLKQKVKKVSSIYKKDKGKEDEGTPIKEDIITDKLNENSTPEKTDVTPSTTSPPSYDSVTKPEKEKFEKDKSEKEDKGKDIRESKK
kappa-opioid receptor, sequence (P41145 whole entry): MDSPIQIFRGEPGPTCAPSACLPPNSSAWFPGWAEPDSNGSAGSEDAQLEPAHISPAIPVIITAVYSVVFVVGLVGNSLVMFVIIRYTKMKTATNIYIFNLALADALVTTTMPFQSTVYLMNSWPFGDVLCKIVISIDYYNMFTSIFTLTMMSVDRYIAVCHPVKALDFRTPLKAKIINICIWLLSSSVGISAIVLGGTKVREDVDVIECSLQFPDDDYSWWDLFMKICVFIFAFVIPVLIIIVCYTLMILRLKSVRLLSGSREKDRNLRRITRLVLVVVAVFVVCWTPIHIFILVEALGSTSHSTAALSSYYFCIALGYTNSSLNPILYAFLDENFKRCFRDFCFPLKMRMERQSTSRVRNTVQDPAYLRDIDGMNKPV

Structure (SMILES): COc1cccc2c1O[C@@H](CNS(N)(=O)=O)CO2 [10g]
- MES, po, effect (animals responding / animals tested) ([1]; 100 mg/kg po, 0.5 h): 0.5, 0/5; 2, 0/5 ^j
- MES, po, effect (animals responding / animals tested) ([1]; 100 mg/kg po, 2 h): 0.5, 0/5; 2, 0/5 ^j

Structure (SMILES): NS(=O)(=O)NC[C@H]1COc2cc(Cl)ccc2O1 [compound 4, (2S)-(–)-N-((6-Chloro-2,3-dihydrobenzo[1,4]dioxin-2-yl)methyl)sulfamide]
- Nav1.2 inhibition at −107 mV (rat Nav1.2; at −107 mV): virtually no inhibition
- Increase in KCNQ2 current (rat KCNQ2; 300 μM, −50 mV, N = 5 cells): 2.4 fold
- Increase in decay kinetics (rat KCNQ2; 300 μM, −50 mV, N = 5 cells): 2 fold
- Increase in KCNQ2 current (rat KCNQ2; 750 μM): 4 fold
- inhibition at 10 µM (kappa-opioid receptor): 45%
- Effect on after-discharge duration ([2]; rat, i.p., p = 0.07): no statistically significant effect

Structure (SMILES): NCC1(CC(=O)O)CCCCC1 [gabapentin]
- Effect on Na+ channel activity (rat Nav1.2; up to 300 μM): no effect

Structure (SMILES): CCC1(C)CC(=O)NC1=O (centres unmarked) [ethosuximide]
- Effect in rat kindling model ([2]; maximally effective dose): not effective

Structure (SMILES): NS(=O)(=O)NCc1csc2ccccc12 [compound 3, N-((benzo[b]thien-3-yl)methyl)sulfamide]
- Oral mouse MES ED50 [3]: 119 ^c mg/kg
- MES, po, effect (animals responding / animals tested) ([3]; mouse, 100 mg/kg): 0.5, 1/5; 2, 3/5
- Rat MES oral ED50 [4]: 34 mg/kg
- ED50 vs s.c. Bic-induced forelimb clonic seizures ([5]; ip, […]): 156 mg/kg
- ED50 vs s.c. PTZ-induced forelimb clonic seizures ([5]; ip, […]): 161 mg/kg
- ED50 vs s.c. Pic-induced forelimb clonic seizures ([5]; ip, […]): 106 mg/kg
- Rats with complete absence of seizure activity ([6]; maximally effective dose, time of peak effect): six out of eight
- Reduction of after-discharge duration ([6]; rat, i.p., p < 0.01): 64%
- Rats with seizure score reduced from 5 to 0 ([6]; rat, i.p., p = 0.0001): six out of eight
- Time of peak activity ([6]; rat, i.p., sustained at 1 h): 15 min

Structure (SMILES): CN(C)S(=O)(=O)NCC1COc2ccccc2O1 (centres unmarked) [compound 7, N-((2,3-Dihydrobenzo[1,4]dioxin-2-yl)methyl)-N’,N’-dimethylsulfamide]
- MES, po, effect (animals responding / animals tested) ([1]; 300 mg/kg po, 0.5 h): 4/5
- MES, po, effect (animals responding / animals tested) ([1]; 300 mg/kg po, 2 h): 0/5

Structure (SMILES): CCCCNS(N)(=O)=O [BuNHSO2NH2]
- Activity in the MES test ([3]; mouse): not active

Structure (SMILES): NS(=O)(=O)NC[C@H]1COc2c(Cl)cccc2O1 [10a]
- MES, po, effect (animals responding / animals tested) ([1]; 100 mg/kg po, 0.5 h): 0/5
- MES, po, effect (animals responding / animals tested) ([1]; 100 mg/kg po, 2 h): 1/5

Structure (SMILES): NS(=O)(=O)NCc1ccccc1 [PhCH2NHSO2NH2]
- Mouse MES effect (animals protected / tested) ([3]; 100 mg/kg): 3/3
- Mouse MES effect (animals protected / tested) ([3]; 300 mg/kg): 3/3

Structure (SMILES): NC(=O)N1c2ccccc2C=Cc2ccccc21 [carbamazepine]
- Effect in rat kindling model ([2]; maximally effective dose): significantly suppressed seizure activity
- Doses giving protection similar to 4 (range of neurotoxic effects) ([2]; rat kindling): > 26 mg/kg

Structure (SMILES): CC1(C)O[C@@H]2[C@@H](CO[C@@]3(COS(N)(=O)=O)OC(C)(C)O[C@@H]23)O1 [compound 1, topiramate]
- Rats with complete protection ([2]; maximally effective dose): one out of eight
- Effect in rat kindling model ([2]; maximally effective dose): not effective
- Oral mouse MES ED50 [3]: 43.8 ^f mg/kg
- MES, po, effect (animals responding / animals tested) ([3]; mouse): 0.5, 2/5; 2, 4/5 ^l
- ED50 (sound-induced seizures): 4.2 mg/kg

Structure (SMILES): O=C1NC(=O)C(c2ccccc2)(c2ccccc2)N1 [phenytoin]
- Effect in rat kindling model ([2]; maximally effective dose): significantly suppressed seizure activity

Structure (SMILES): CCCC(CCC)C(=O)O [valproic acid]
- Effect in rat kindling model ([2]; maximally effective dose): significantly suppressed seizure activity
- Doses giving protection similar to 3 (range of neurotoxic effects) ([2]; rat kindling): > 300 mg/kg
- ED50 in chemically-induced seizures (comparators) [5]: > 200 mg/kg

Structure (SMILES): CC[C@@H](C(N)=O)N1CCCC1=O [levetiracetam]
- ED50 in chemically-induced seizures (comparators) [5]: > 540 mg/kg

Structure (SMILES): NS(=O)(=O)NCC1Oc2ccc(Cl)cc2O1 (centres unmarked) [11b]
- MES, po, effect (animals responding / animals tested) ([1]; 100 mg/kg po, 0.5 h): 0.5, 0/5; 2, 0/5
- MES, po, effect (animals responding / animals tested) ([1]; 100 mg/kg po, 2 h): 0.5, 0/5; 2, 0/5
